Reference: US20130337564A1, “Treatment of Pluripotent Cells” (Janssen Biotech, Inc., priority 2012, published 2013)
Where “and” joins values, the source holds several entries; their conditions need not be identical. Equal entries are not always repeated.

Legend:
[1] = MTS viability (toxicity) assay of cells expressing pluripotency markers; assay type: cell-based, human; set-up: Raw data (duplicate), first replicate / Average: unit not given here; conditions: human, MTS on day 4, relative to Activin A + Wnt3a positive control, read-out: % Control (percentage viability of control); for viability at 4 days, 2.5 μM: cmpd conc 2.5 μM; for viability at 4 days, 5 μM: cmpd conc 5 μM; for viability at 4 days, 10 μM: cmpd conc 10 μM
How it was run: (§1)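 Cells expressing pluripotency markers, derived from human embryonic stem cells, were plated at 20,000 cells per well in 96-well clear-bottom plates and cultured overnight. Test compounds were applied in assay medium on days 1 and 2, and compound-free medium on days 3 and 4. On day 4, MTS was added and optical density at 490 nm was read in duplicate.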

[2] = test system: cells expressing pluripotency markers derived from human embryonic stem cells; experiment: as above; assay type: cell-based; set-up: Raw data (duplicate), first replicate / Average: unit not given here; conditions: for viability at 10 µM: Homo sapiens, Embryonic stem cell; for viability at 10 µM / % Control: viability of cells expressing pluripotency markers, relative to control; for Raw data (duplicate), first replicate / Raw data (duplicate), second replicate: MTS viability assay raw reading; for Raw data (duplicate), first replicate: replicate 1; for Raw data (duplicate), second replicate: replicate 2; for Average: average of duplicate MTS raw readings; for Average of raw data (duplicate), optical density at 490 nm: MTS on day 4
How it was run: as §1

[3] = test system: human embryonic stem cells (H9 line); experiment: High content screening assay: cell number (proliferative response); assay type: cell-based; conditions: for fold induction at 10 µM: Homo sapiens, Embryonic stem cell, read-out: Proliferative Response, Fold over Wnt 3a/AA control
How it was run: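 H9 hESCs on MATRIGEL treated days 1-2 with 10 μM compound in DMEM:F12, 0.5% FCS, 100 ng/ml activin A; days 3-4 with 2% FCS plus activin A without compound. Fixed cells immunostained for Sox17 or HNF-3beta with Draq5 nuclear counterstain. Cell number and staining intensity quantified by high-content imaging, 12 fields/well.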

[4] = 10 μM test compound with 100 ng/ml activin A on days 1-2, H9, total cell number by IN Cell Analyzer, strong and moderate hits
[5] = cell number in the wells analysed for HNF-3b expression
[6] = cell number in the wells analysed for HNF-3b expression, normalised to Wnt 3a/AA control
[7] = cell number in the wells analysed for SOX-17 expression
[8] = cell number in the wells analysed for SOX-17 expression, normalised to Wnt 3a/AA control

SMILES	viability at 4 days, 2.5 μM [1]	viability at 4 days, 5 μM [1]	viability at 4 days, 10 μM [1]	viability at 10 µM [2]	Raw data (duplicate), first replicate [2]	Raw data (duplicate), second replicate [2]	Average [2]	Average of raw data (duplicate), optical density at 490 nm ([2]; cmpd conc 2.5 μM)	Average of raw data (duplicate), optical density at 490 nm ([2]; cmpd conc 5 μM)	Average of raw data (duplicate), optical density at 490 nm ([2]; cmpd conc 10 μM)	% Control [2]	Proliferative Response Fold over Wnt 3a/AA control [3, 4]	Proliferative Response Total cells [3, 5]	Proliferative Response Fold over Wnt 3a/AA control [3, 6]	Proliferative Response Total cells [3, 7]	Proliferative Response Fold over Wnt 3a/AA control [3, 8]	fold induction at 10 µM [3, 4]
O=C1NC(=O)C(c2nn(CCCO)c3ccccc23)=C1c1cn(-c2cccnc2)c2ccc(Cl)cc12 [Compound 52, 3-(5-Chloro-1-pyridin-3-yl-1H-indol-3-yl)-4-[1-(3-hydroxypropyl)-1H-indazol-3-yl]-1H-pyrrole-2,5-dione]	92%	40.1%	2.3%	110%	0.911	0.884	0.898	0.7886	0.4156	0.1448	–	–	–	–	–	–	–
CN(C)CCCn1c2c(c3ccccc31)C1=C(C(=O)NC1=O)N(c1cccc(Cl)c1)C2 [Compound 101, 4-(3-Chlorophenyl)-6-[3-(dimethylamino)propyl]-5,6-dihydropyrrolo[3′,4′:5,6]pyrido[3,4-b]indole-1,3(2H,4H)-dione]	100%	95.9%	1.3%	100%	0.791	0.768	0.779	0.7987	0.7702	0.1390	–	–	–	–	–	–	–
O=C1NC(=O)C2=C1c1cn(c3ccccc13)CCOCCOCCOCCOCCn1cc2c2ccccc21 [Compound 165, 10,11,13,14,16,17,19,20,22,23-Decahydro-1H-9,4:24,29-di(metheno)dibenzo[n,t]pyrrolo[3,4-q][1,4,7,10,13,22]tetraoxadiazacyclotetracosine-1,3(2H)-dione]	–	–	–	–	0.690	0.674	0.682	–	–	–	83.3%	5.8846 Fold over Wnt 3a/AA control	7460	5.885 fold	2899	1.736 fold	–
O=C(Nc1ccc(C(=O)N2CC3CSCCN3Cc3ccccc32)c(Cl)c1)c1cc(Cl)cc(Cl)c1 (stereo not drawn) [Compound 166, 3,5-Dichloro-N-[3-chloro-4-(3,4,12,12a-tetrahydro-1H-[1,4]thiazino[3,4-c][1,4]benzodiazepin-11(6H)-ylcarbonyl)phenyl]benzamide]	–	–	–	74.8%	0.615	0.635	0.625	–	–	–	–	–	787	–	562	–	0.621
O=C1NC(=O)C2=C1c1cn(c3ncccc13)CCOCCOCCOCCOCCOCCn1cc2c2cccnc21 [Compound 168, 10,11,13,14,16,17,19,20,22,23,25,26-Dodecahydro-1H-9,4:27,32-di(metheno)dipyrido[2,3-q:3′,2′-w]pyrrolo[3,4-t][1,4,7,10,13,16,25]pentaoxadiazacycloheptacosine-1,3(2H)-dione]	–	–	–	–	0.610	0.628	0.619	–	–	–	73.9%	–	57	0.04523 fold	118	0.07046 fold	–
O=C1NC(=O)C2=C1c1cn(c3ncccc13)CCOCCOCCOCCOCCn1cc2c2cccnc21 [Compound 169]	–	–	–	–	0.681 and 0.636	0.698 and 0.621	0.689 and 0.629	–	–	–	84.5% and 75.4%	1.0764 Fold over Wnt 3a/AA control	–	–	–	–	–
CN(C)CCCn1cc(C2=C(c3cccc4ccccc34)C(=O)NC2=O)c2cccnc21 [Compound 175, 3-{1-[3-(Dimethylamino)propyl]-1H-pyrrolo[2,3-b]pyridin-3-yl}-4-naphthalen-1-yl-1H-pyrrole-2,5-dione]	–	–	–	3%	0.135	0.158	0.146	–	–	–	–	–	42	–	1	–	–
O=C1NC(=O)C2=C1c1cn(c3ncccc13)CCOCCOCCn1cc2c2cccnc21 [Compound 180, 6,7,9,10,12,13-Hexahydro-20H-5,23:14,19-di(metheno)dipyrido[2,3-h:3′,2′-n]pyrrolo[3,4-k][1,4,7,16]dioxadiazacyclooctadecine-20,22(21H)-dione]	–	–	–	–	0.141 and 0.611	0.128 and 0.628	–	–	–	–	–	–	4	0.003155 fold	3	0.001796 fold	–
O=C1NC(=O)C(c2cn(CCCO)c3ncccc23)=C1c1cn(CCCO)cn1 [Compound 182, 3-[1-(3-Hydroxypropyl)-1H-imidazol-4-yl]-4-[1-(3-hydroxypropyl)-1H-pyrrolo[2,3-b]pyridin-3-yl]-1H-pyrrole-2,5-dione]	–	–	–	100%	0.802	0.801	0.802	–	–	–	–	–	425	–	20	–	–
O=C1NC(=O)C(c2cn(CCCO)c3ncccc23)=C1c1cn(CCO)cn1 [Compound 183, 3-[1-(2-Hydroxyethyl)-1H-imidazol-4-yl]-4-[1-(3-hydroxypropyl)-1H-pyrrolo[2,3-b]pyridin-3-yl]-1H-pyrrole-2,5-dione]	–	–	–	82.6%	0.792	0.572	0.682	–	–	–	–	–	5	–	7	–	–
O=C1NC(=O)C(c2cn(CCCO)c3ncccc23)=C1c1ccn(CCCO)n1 [Compound 185, 3-[1-(3-Hydroxypropyl)-1H-pyrazol-3-yl]-4-[1-(3-hydroxypropyl)-1H-pyrrolo[2,3-b]pyridin-3-yl]-1H-pyrrole-2,5-dione]	–	–	–	104%	0.830	0.807	0.818	–	–	–	–	–	–	–	–	–	0.944
Cn1ccc(C2=C(c3cn(CCCO)c4ncccc34)C(=O)NC2=O)n1 [Compound 209]	–	–	–	121%	0.971	0.913	0.942	–	–	–	–	–	4209	–	2473	–	–
COc1ccccc1C1=C(c2cn(-c3cccnc3)c3ccccc23)C(=O)NC1=O [Compound 216, 3-[2-(Methyloxy)phenyl]-4-(1-pyridin-3-yl-1H-indol-3-yl)-1H-pyrrole-2,5-dione]	–	–	–	92.2%	0.768	0.724	0.746	–	–	–	–	–	8479	–	5991	–	–
O=C1NC(=O)C(c2cn(-c3cncnc3)c3ccccc23)=C1c1cn(CCO)c2ccccc12 [Compound 230, 3-[1-(2-Hydroxyethyl)-1H-indol-3-yl]-4-(1-pyrimidin-5-yl-1H-indol-3-yl)-1H-pyrrole-2,5-dione]	–	–	–	81.8%	0.680	0.663	0.671	–	–	–	–	–	16884	–	20079	–	1.31
Cn1cc(C2=C(c3nn(CCCn4ccnc4)c4ccccc34)C(=O)NC2=O)c2cc(Cl)ccc21 [Compound 231, 3-(5-Chloro-1-methyl-1H-indol-3-yl)-4-{1-[3-(1H-imidazol-1-yl)propyl]-1H-indazol-3-yl}-1H-pyrrole-2,5-dione]	–	–	–	76.7%	0.640	0.636	0.638	–	–	–	–	–	11369	–	13789	–	0.9
Cn1cc(C2=C(c3nn(CCCn4ccnn4)c4ccccc34)C(=O)NC2=O)c2cc(Cl)ccc21 [Compound 232, 3-(5-Chloro-1-methyl-1H-indol-3-yl)-4-{1-[3-(1H-1,2,3-triazol-1-yl)propyl]-1H-indazol-3-yl}-1H-pyrrole-2,5-dione]	–	–	–	87.3%	0.720	0.697	0.709	–	–	–	–	–	14950	–	16652	–	1.09
